By IC50 is commonly meant the point on the concentration scale where inhibition reaches its midpoint. For orientation: melting point means the temperature, or range, at which the solid turns liquid.

One data set has as its system NF-κB. In words: NF-κB levels by Western blot analysis. Format: cell-based, human. To be noted: NCTC 2544 stimulated with IFN-γ and histamine, 10 µM, 48 h, in words. The text has this: The treatment of keratinocyte cell line NCTC 2544 with 200 U/mL of IFN-γ and 10^−4 M of H increased NF-κB levels compared to untreated cells. IFN-γ is an essential cytokine in amplifying inflammatory reactions, as it stimulates the synthesis of chemokines that attract inflammatory cells and induces expression of molecules important for the retention and activation of T cells. We employed both IFN-γ and histamine because they use distinct signal transduction pathways, and this can lead to a stronger activation of inflammatory genes. […] Stimulated keratinocytes were treated with compounds 22 and 23 and the levels of NF-κB were measured after 48 h. […]
The normal human keratinocyte cell line NCTC 2544 was provided by Interlab Cell Line Collection Genoa (Genova, Italy) and cultured in Minimum Essential Medium (MEM) (Sigma-Aldrich, Milan, Italy) containing 10% fetal calf serum, 100 U/mL penicillin and 100 μg/mL streptomycin at 37 °C in a humidified, 95% air/5% CO2 atmosphere. […] A day before the experiment, cells were trypsinized, counted, and plated either in 96 wells or in 6 well plates. […]
The expression of nuclear factor kappa-light-chain-enhancer of activated B cells (NF-κB) was evaluated by Western blot analysis. […] Bands were measured densitometrically and their relative density was calculated based on the density of the […] in each sample. […]
Background: Immunoblotting shows a protein as a band on a membrane.

The nature of data set [1]: Oxygen Radical Absorbance Capacity (ORAC) assay. The note with it: for ORAC UNITs: fluorescein 10 nM, AAPH 100 mM, 37 °C, pH 7.0, mean ± SD (n = 3), Trolox = 1 ORAC Units. The text has this:
Free radicals and ROS are highly reactive molecules that are generated by normal cellular processes. They react with cellular components, damaging DNA, carbohydrates, proteins, and lipids causing cellular and tissue injury. Although organisms have developed complex antioxidant systems to protect themselves from oxidative substances, an excess of ROS production can lead to inflammation and several disease state. ORAC test measures both lipophilic and hydrophilic antioxidant capacity and determines the ability of antioxidants to protect proteins from damage caused by free radicals. ORAC assay has been widely accepted as a standard in vitro to measure the antioxidant activity of synthetic compounds, measuring their capacity to transfer hydrogen atom. The assay measures the loss of fluorescence over time due to peroxyl-radical formation by the breakdown of 2,2′-azobis-2-methyl-propanimidamide dihydrochloride (AAPH). 6-Hydroxy-2,5,7,8-tetramethylchroman-2-carboxylic acid (Trolox), a water soluble vitamin E analog, is a positive control that inhibits the fluorescein decay in a dose dependent manner. The ORAC assay is a kinetic assay measuring fluorescein decay and antioxidant protection over time.
The ORAC assay was performed as previously reported by Cao et al.. The measurements were carried out on a Wallac 1420 Victor^3 96-well plate reader (EG & Wallac, Turku, Finland) with fluorescence filter ([…]). Fluorescein (10 nM) was the fluorescence probe and target molecule for free radical attack from AAPH (100 mM) as peroxyl radical generator. The reaction was conducted at 37 °C at pH 7.0 with Trolox (12.5 μM) as control standard and phosphate buffer as blank. Compounds 13–19 and 22–23 were appropriately diluted with DMSO/buffer (1:10) prior to analysis. The fluorescein fluorescence was recorded every 2 min after addition of AAPH. All measurements were expressed relative to the initial reading. One blank, one standard, and a maximum of 10 samples were analyzed at the same time. Each measure was repeated at least three times. The ORAC value refers to the net protection area under the quenching curve of fluorescein in the presence of an antioxidant. The final results (ORAC value) were calculated and expressed using Trolox equivalents (TE) per gram of extract (TE/g):ORAC value (μM) = K(S sample − S blank)/(S Trolox − S blank)(1) where K is a sample dilution factor, S is the area under the fluorescence decay curve of the sample, Trolox or blank. This area was calculated with Origin®7 (OriginLab Corporation, Northampton, MA, USA).

Another data set concerns the target T1, human recombinant MMP-9 (Homo sapiens, UniProt P14780).
T1 construct: using 10 nM of proteolytic enzyme (catalytic domains of MMP-9 (Biomol, Inc.)); purchased Biomol, Inc
In words: MMP-9 fluorimetric assay. Format: biochemical. The procedure: The synthesized compounds 13–19, 22 and 23 were tested for their in vitro ability to inhibit human recombinant MMP-9. Table 2 reports the results of this inhibition assay, expressed as IC50 (µM). […] We used as positive control a potent MMPs inhibitor, NNGH (N-isobutyl-N-(4-methoxy-phenylsulfonyl)glycylhydroxamic acid).
The compounds were evaluated for their ability to inhibit the hydrolysis of fluorescence-quenched peptide substrate Mca-Pro-Leu-Gly-Leu-Dpa-Ala-Arg-NH2 (Biomol, Inc., Enzo Life Sciences, Inc., Farmingdale, NY, USA). The MMP-9 assays were performed in 50 mM HEPES buffer containing 5 mM CaCl2, 0.1 mM ZnCl2, 0.05% Brij-35, at pH 7, using 10 nM of proteolytic enzyme (catalytic domains of MMP-9 (Biomol, Inc.) and 350 nM of peptide substrate. The enzyme was incubated at 25 °C with increasing concentration (0.0004, 0.004, 0.04, 0.4, 4, 40, 400 µM) of compounds, and the fluorescence (excitation max 328 nm; emission max 393 nm) was measured for 3 min after the addition of the substrate using a Victor Wallac 1420 Multilabel Counters fluorimeter (Perkin Elmer, Waltham, MA, USA). The fluorescence values of the samples were plotted against the time with a linear regression fit, using the Origin software, version 7 (Origin Lab Corporation, Northampton, MA, USA). The slope of the line value for each inhibitor concentrations was obtained where an increase of the slope corresponds to a decrease of inhibitory activity. Subsequently, the IC50 values were obtained from a non-linear regression procedure (log inhibitor vs. response) with a variables slope of the regression line (Y) and the molar inhibitor concentration (X), using the software Origin®7 (Origin Lab Corporation). The IC50 value was obtained from the equation Y = P1/(1 + X/P2). NNGH (N-Isobutyl-N-(4-methoxyphenylsulfonyl)glycylhydroxamic acid) a potent MMPs inhibitor was used as a positive control.

Where two headings read alike, the source gives them in different places.

T1 sequence (P14780 107-444 limits assumed): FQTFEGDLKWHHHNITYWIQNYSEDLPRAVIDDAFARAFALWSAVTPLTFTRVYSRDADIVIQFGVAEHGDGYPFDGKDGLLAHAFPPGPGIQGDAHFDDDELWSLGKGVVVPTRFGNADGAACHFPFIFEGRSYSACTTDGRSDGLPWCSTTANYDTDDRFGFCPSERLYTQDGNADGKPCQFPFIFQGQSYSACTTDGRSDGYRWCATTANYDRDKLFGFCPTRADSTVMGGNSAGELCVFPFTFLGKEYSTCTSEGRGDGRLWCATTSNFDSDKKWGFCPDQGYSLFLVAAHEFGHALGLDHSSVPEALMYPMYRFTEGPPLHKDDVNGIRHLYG

In turn, `CC(C(=O)NN1C(=O)CSC1c1ccc(O)cc1)c1nsc2ccccc12` (stereo not shown) [Compound 22, 2-(1,2-Benzothiazol-3-yl)-N-[2-(4-hydroxyphenyl)-4-oxo-1,3-thiazolidin-3-yl]propanamide] had a melting point of 257 to 259 °C. Moreover, the “effect on NF-κB release” value with NF-κB was “reduced NF-κB release”. Moreover, the “antioxidant activity in words” value in data set [1] (delay of fluorescence reduction of fluorescein-AAPH solution) is on record as “excellent antioxidant effectiveness”. Besides, the “ORAC UNITs” value in data set [1] was 1.24 ± 0.09 ORAC unit (μmol of Trolox equi. Besides, the IC50 on human recombinant MMP-9 (catalytic domain of MMP-9 10 nM, substrate 350 nM, 25 °C, pH 7, mean ± SD (n = 3), n.a. = not active, read-out: IC50 Value) was found to be 300 ± 50 nM.
Regarding `CC(C(=O)NN1C(=O)CSC1c1ccc(C(=O)O)cc1)c1nsc2ccccc12` (stereo not shown) [Compound 23, 4-(3-{[2-(1,2-Benzothiazol-3-yl)propanoyl]amino}-4-oxo-1,3-thiazolidin-2-yl)benzoic acid], the melting point fell in the range of 137 to 140 °C. Moreover, the “effect on NF-κB release” value in the data set on NF-κB is recorded as “reduced NF-κB release”. In data set [1], the ORAC value stood at 0.53 TE/µmol and the “ORAC UNITs” value was 0.53 ± 0.17 ORAC unit (μmol of Trolox equi. Besides, at human recombinant MMP-9 (read-out: IC50 (MMP-9)), the half-maximal inhibitory concentration (IC50) stood at 40 nM.
